Values quoted from earlier work as cited in publication PMC8260592 (Scientific Reports, 2021).
In brackets after ≈: the same amount, converted by molar mass. Where two headings read alike, the source gives them in different places.

Columns and labels:
[1] = tested on: AChE; settings: cited from earlier work
[2] = tested on: MAO-B; settings: ref 22; cited from earlier work

COc1cc(C[C@H](C)[C@H](C)Cc2ccc3c(c2)OCO3)ccc1O [macelignan]
IC50 ([1]; ref 22): 4.16 µM
IC50 [2]: 7.42 µM

COc1cc2oc(-c3ccc(O)cc3)cc(=O)c2c(O)c1[C@@H]1O[C@H](CO)[C@@H](O)[C@H](O)[C@H]1O [swertisin, isovitexin-7-O-methyl ether]
IC50 ([1]; converted from µg/mL): 71.9 µM
IC50 AChE ([1]; ref 49): 32.09 µg/mL (≈ 71.9 µM)

O=C(/C=C/c1ccc(O)cc1)OC[C@H]1O[C@@H](Oc2c(-c3ccc(O)cc3)oc3cc(O)cc(O)c3c2=O)[C@H](O)[C@@H](O)[C@@H]1O [tiliroside]
IC50 ([1]; ref 50): 23.5 µM

Oc1ccc([C@H]2c3c(O)cc(O)cc3[C@H]3c4c(cc(O)cc4[C@@H]2c2cc(/C=C/c4cc(O)cc5c4[C@H](c4cc(O)cc(O)c4)[C@@H](c4ccc(O)cc4)O5)ccc2O)O[C@@H]3c2ccc(O)cc2)cc1 [vitisin A]
IC50 ([1]; ref 56): 1.04 µM

COc1c(O)cc2oc3cc(O)c(CC=C(C)C)c(O)c3c(=O)c2c1CC=C(C)C [α-mangostin]
IC50 ([1]; ref 53): 2.48 µM
IC50 ([1]; ref 54): 6.3 µM

heyneanol A
IC50 ([1]; ref 56): 1.66 µM
